The target in data set [1] is T1, MAO-A (Homo sapiens, UniProt P21397).
T1 construct: purchased BD Biosciences (Bedford, MA, USA)
T1 sequence (P21397 1-527): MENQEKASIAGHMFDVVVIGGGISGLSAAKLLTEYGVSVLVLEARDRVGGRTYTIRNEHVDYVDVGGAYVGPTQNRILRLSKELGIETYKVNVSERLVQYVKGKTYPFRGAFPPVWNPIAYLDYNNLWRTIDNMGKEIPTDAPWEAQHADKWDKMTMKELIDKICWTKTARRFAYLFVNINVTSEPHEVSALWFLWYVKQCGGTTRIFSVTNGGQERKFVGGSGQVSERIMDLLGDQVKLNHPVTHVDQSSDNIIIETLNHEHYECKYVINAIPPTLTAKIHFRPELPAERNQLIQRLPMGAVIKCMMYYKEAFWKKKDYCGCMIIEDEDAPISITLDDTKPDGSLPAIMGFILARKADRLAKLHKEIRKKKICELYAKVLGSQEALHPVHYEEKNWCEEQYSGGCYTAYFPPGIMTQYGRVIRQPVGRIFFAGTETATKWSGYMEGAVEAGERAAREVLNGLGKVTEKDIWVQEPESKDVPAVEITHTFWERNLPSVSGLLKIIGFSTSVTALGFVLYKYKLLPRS
As to the kind of experiment: Enzyme kinetics and mechanism study (Lineweaver-Burk), MAO-A. It is filed as biochemical. The settings on record: for Type of Inhibition, Monoamine Oxidase-A: kinetics and dialysis.
Protocol: (§3) Three sets of assays were completed at varying concentrations of the substrate for each experiment, one control without inhibitor and the others with two different concentrations of the inhibitor. The data were evaluated by double reciprocal Lineweaver-Burk plots for determination of the Ki (i.e., inhibition/binding affinity) values.
(§4) For determination of the binding affinity of the inhibitor (Ki) to MAO-A and -B, the enzyme assays were carried out at different concentrations of kynuramine substrate (1.90 μM to 500 μM) and varying concentrations of the inhibitors/compound. The flavonoids (1–6) were tested at 0.030–0.100 μM for MAO-A and 0.100–0.500 μM for -B. The controls without inhibitor were also run simultaneously. The results were analyzed by SigmaPlot version 10 using standard double reciprocal Lineweaver-Burk plots for computing Km and Vmax values, which were further analyzed to determine the Ki values [18, 36, 37].

The target of data set [2] is T1, MAO-A. Kind of data set: MAO inhibition assay (kynuramine oxidative deamination), MAO-A. In kind it is biochemical. The settings on record: for SI b (Selectivity index: MAO-A IC50/MAO-B IC50): ratio of IC50 values. The method, then:
In this study, we have investigated the effect of the isolated constituents (1–6) on human recombinant MAO-A and -B. The kynuramine oxidation deamination assay was performed in 96-well plates as previously reported, with modification. A fixed concentration of kynuramine substrate and varying concentrations of test compounds or inhibitor were used to determine the IC50 values. Kynuramine concentrations for MAO-A and -B were 80 μM and 50 μM, respectively. […] The enzymatic reactions were initiated by the addition of MAO-A (5 μg/mL) or -B (12.5 μg/mL), and incubated for 20 min at 37 °C. The enzyme reactions were terminated by the addition of 78 μL of 2N NaOH. The formation of 4-hydroxyquinoline (the enzyme reaction end product) was recorded fluorometrically on a SpectraMax M5 fluorescence plate reader (Molecular Devices, Sunnyvale, CA, USA) with an excitation (320 nm) and emission (380 nm) wavelength, using the Soft MaxPro-6 program. The inhibition effects of enzyme activity were calculated as the percent of product formation compared to the corresponding controls (enzyme–substrate reaction) without inhibitors. The assay controls, to define the interference of the test compounds with the fluorescence measurements, were set up simultaneously, and the enzyme or the substrate was added after stopping the reaction.
(§1) The dose–response enzyme-inhibition curves were generated using Microsoft® Excel and the IC50 values were computed with XLfit®.

Data set [3] concerns the target T2, MAO-B (Homo sapiens, UniProt P27338).
T2 sequence (P27338 1-520): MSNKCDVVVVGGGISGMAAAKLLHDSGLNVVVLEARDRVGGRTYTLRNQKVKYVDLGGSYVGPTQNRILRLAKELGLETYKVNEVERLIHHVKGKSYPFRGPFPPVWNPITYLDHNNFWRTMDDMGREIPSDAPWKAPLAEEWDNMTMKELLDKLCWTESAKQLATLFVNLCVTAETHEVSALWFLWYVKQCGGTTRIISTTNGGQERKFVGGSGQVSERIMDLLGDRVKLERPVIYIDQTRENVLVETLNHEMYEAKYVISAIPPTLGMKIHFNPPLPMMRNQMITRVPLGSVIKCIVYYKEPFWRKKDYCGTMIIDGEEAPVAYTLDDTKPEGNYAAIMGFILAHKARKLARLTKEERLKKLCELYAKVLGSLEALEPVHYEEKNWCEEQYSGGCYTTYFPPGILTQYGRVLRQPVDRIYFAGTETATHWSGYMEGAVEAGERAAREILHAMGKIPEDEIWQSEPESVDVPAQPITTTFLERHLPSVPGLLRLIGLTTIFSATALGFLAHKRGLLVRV
As to the kind of experiment: MAO inhibition assay (kynuramine oxidative deamination), MAO-B. In kind it is biochemical. Also noted: purchased BD Biosciences (Bedford, MA, USA). The settings on record: kynuramine 50 μM; mean ± S.D. of at least triplicate observations. On the procedure:
In this study, we have investigated the effect of the isolated constituents (1–6) on human recombinant MAO-A and -B. The kynuramine oxidation deamination assay was performed in 96-well plates as previously reported, with modification. A fixed concentration of kynuramine substrate and varying concentrations of test compounds or inhibitor were used to determine the IC50 values. Kynuramine concentrations for MAO-A and -B were 80 μM and 50 μM, respectively. […] The enzyme reactions were terminated by the addition of 78 μL of 2N NaOH. The formation of 4-hydroxyquinoline (the enzyme reaction end product) was recorded fluorometrically on a SpectraMax M5 fluorescence plate reader (Molecular Devices, Sunnyvale, CA, USA) with an excitation (320 nm) and emission (380 nm) wavelength, using the Soft MaxPro-6 program. The inhibition effects of enzyme activity were calculated as the percent of product formation compared to the corresponding controls (enzyme–substrate reaction) without inhibitors. The assay controls, to define the interference of the test compounds with the fluorescence measurements, were set up simultaneously, and the enzyme or the substrate was added after stopping the reaction.
as §1

In data set [4] the target is T1, MAO-A. Kind of data set: Enzyme-inhibitor complex equilibrium dialysis assay, MAO-A. It is filed as binding. The settings on record: 20 min incubation, dialyzed overnight; 1 10.0 μM, 2 25.0 μM, 3 25.0 μM, 5 100.0 μM. On the procedure:
(§2) Enzyme-inhibitors mostly produce inhibition of the target enzyme through the formation of an enzyme–inhibitor complex. The formation of the enzyme–inhibitor complex may be accelerated in the presence of a high concentration of the test inhibitor. The property of binding of test compounds to MAO-A or -B was determined by the formation of the enzyme–inhibitor complex by incubation of the enzyme with a high concentration of the test compound. This was followed by extensive equilibrium dialysis of the enzyme–inhibitor complex. Recovery of catalytic activity of MAO-A and -B was determined before and after the dialysis. […] After 20 min incubation at 37 °C, the reaction was stopped by chilling the tubes in an ice bath. […] All the samples with enzyme–inhibitor complex were individually dialyzed against potassium phosphate buffer (25 mM; pH 7.4) at 4 °C for 16–18 h (including three buffer changes). The control enzyme (without inhibitor) was also run through the same procedure and the activity of the enzyme was determined before and after the dialysis.
A general note: In equilibrium dialysis only unbound substance equilibrates across the membrane.

The target in data set [5] is T2, MAO-B. Kind of data set: Time-dependent inhibition assay, MAO-B. It is filed as biochemical. Also noted: purchased BD Biosciences (Bedford, MA, USA). The settings on record: pre-incubation 0–15 min; 3 3.0 μM, 4 1.0 μM, 6 2.0 μM. The method, then: To investigate if the binding of the inhibitor with MAO-A and -B followed time-dependent inhibition kinetics, the enzyme was pre-incubated with the inhibitor for different time periods (0–15 min). […] The controls without inhibitors were also run simultaneously. The activities of the MAO-A and -B enzymes were determined as described above and the percentage of enzyme activity remaining was plotted against the pre-incubation time to determine time-dependent inhibition.

Data set [6] addresses T2, MAO-B. Kind of data set: Enzyme kinetics and mechanism study (Lineweaver-Burk), MAO-B. As to conditions: for Type of Inhibition, Monoamine Oxidase-B: kinetics and dialysis.
Protocol: as §3, §4
Data set [7] addresses T2, MAO-B. Kind of data set: Enzyme-inhibitor complex equilibrium dialysis assay, MAO-B. In kind it is binding. Set-up: purchased BD Biosciences (Bedford, MA, USA). The settings on record: for MAO-B enzyme activity recovered after dialysis / inhibition at 50 µM: 50.0 μM; for inhibition at 50 µM: read-out: Inhibition of MAO-B activity on incubation (before dialysis); for Reversibility of binding with MAO-B: 20 min incubation, dialyzed overnight, 3, 4, 6 at 50.0 μM, deprenyl 0.500 μM. On the procedure:
as §2

The mark [8] stands for this setting: double reciprocal plots, mean ± SD of three observations, read-out: Ki, Monoamine Oxidase-A.
Setting [9] is: kynuramine 80 μM, mean ± S.D. of at least triplicate observations, read-out: MAO-A IC50.

The source of these data is article PMC7697615, “Selective Interactions of O-Methylated Flavonoid Natural Products with Human Monoamine Oxidase-A and -B” (Molecules, 2020).

“Also recorded” adds a separate entry of the source. Where two headings read alike, the source gives them in different places. Some results are limits rather than exact numbers.

As a reminder, the Ki is the equilibrium dissociation constant of an inhibitor or competing ligand from its target. A word on the IC50: it is the concentration that gives 50% inhibition. As a reminder, the inhibition is the share of the control response that was lost under treatment. By melting point is commonly meant the temperature, or range, at which the solid turns liquid.

Take `COc1ccc(-c2oc3cc(O)cc(O)c3c(=O)c2OC)cc1` [Compound 1, 3,4′-di-O-methylkaempferol]: the Ki on MAO-A [1] (setting [8]) amounted to 37.9 ± 0.8 nM. Besides, the “Type of Inhibition, Monoamine Oxidase-A” value at MAO-A [1] was “reversible-competitive; also recorded: Competitive/Reversible”. Moreover, the “Selectivity for MAO-A vs. MAO-B” value at MAO-A [2] is reported as greater than 292 fold. The IC50 at MAO-A [2] (setting [9]) turned out to be 33 ± 42 nM; on MAO-B [3], 9670 ± 2310 nM. The “SI b (Selectivity index: MAO-A IC50/MAO-B IC50)” value on MAO-A [2] was 0.0034.
In the case of `COc1cc(O)c(C(=O)/C=C/c2ccccc2)c(OC)c1` [Compound 2, 2′-hydroxy-4′,6′-dimethoxy-chalcone], the Ki at MAO-A [1] (setting [8]) was 339 ± 219 nM. Further, the “Type of Inhibition, Monoamine Oxidase-A” value at MAO-A [1] was “Competitive/Reversible”. Also, the IC50 on MAO-A [2] (setting [9]) turned out to be 407 ± 75 nM; on MAO-B [3], 5930 ± 833 nM.
`COc1ccc(-c2oc3cc(O)cc(O)c3c(=O)c2O)cc1` [Compound 5, 4′-O-methylkaempferol]: the “Reversibility of binding with MAO-A” value at MAO-A [4] is “partial reversibility; also recorded: partially reversible”. In addition, the inhibition constant Ki at MAO-A [1] (setting [8]) was 3530 ± 265 nM. Also, the “Type of Inhibition, Monoamine Oxidase-A” value on MAO-A [1] is listed as “partially-reversible mixed-type”. Further, the figures for the IC50 at MAO-A [2] (setting [9]) and on MAO-B [3] were 1350 ± 198 nM and greater than 100000 nM, respectively.
Regarding `COc1cc(O)cc(O)c1C(=O)/C=C/c1ccccc1` [Compound 3, 2′,4′-dihydroxy-6′-methoxy-chalcone], on MAO-B [5], the “Time dependence of MAO-B inhibition” value is “did not show time-dependent inhibition”. Besides, on MAO-B [6], the affinity corresponds to a Ki of 1240 ± 600 nM; the “Type of Inhibition, Monoamine Oxidase-B” value is “reversible and competitive”. Also, at MAO-B [7], the “MAO-B enzyme activity recovered after dialysis” value (“MAO-B enzyme activity recovered” below) is listed as 80%, the inhibition at 50 µM was greater than 60% and the “Reversibility of binding with MAO-B” value was “reversible; also recorded: reversibly”. Moreover, on MAO-A [1], the Ki was 633 ± 107 nM and the “Type of Inhibition, Monoamine Oxidase-A” value is “reversible-competitive; also recorded: Competitive/Reversible”. In addition, on MAO-A [2], the IC50 was 1170 ± 513 nM, the “Selectivity for MAO-A vs. MAO-B” value is given as ~ 2 fold and the “SI b (Selectivity index: MAO-A IC50/MAO-B IC50)” value is recorded as 0.432. Moreover, at MAO-B [3], the IC50 was 2700 ± 794 nM.
As to `COc1cc(-c2cc(=O)c3c(O)cc(O)cc3o2)c(OC)c(OC)c1OC` [Compound 6, 5,7-dihydroxy-2,3,4,5-tetramethoxyflavone], the “Time dependence of MAO-B inhibition” value on MAO-B [5] is given as “did not show time-dependent inhibition”. Moreover, at MAO-B [6], the Ki came to 874 ± 69 nM; the “Type of Inhibition, Monoamine Oxidase-B” value was “reversible and competitive”. On MAO-B [7], the “MAO-B enzyme activity recovered” value was found to be 80%, the inhibition at 50 µM was greater than 60% and the “Reversibility of binding with MAO-B” value was “reversible; also recorded: reversibly”. Further, on MAO-A [2] (setting [9]), the IC50 was determined as 87500 ± 3540 nM. Further, the “SI b (Selectivity index: MAO-A IC50/MAO-B IC50)” value at MAO-A [2] was 100.0. Further, the IC50 at MAO-B [3] was 875 ± 35 nM.
Regarding `COc1cc2oc(-c3ccc(O)cc3)cc(=O)c2c(O)c1C` [Compound 4, 8-demethylsideroxylin], the melting point is 275 to 277 °C. The “Time dependence of MAO-B inhibition” value on MAO-B [5] is “did not show time-dependent inhibition”. At MAO-B [6], affinity was put at a Ki of 809 ± 93 nM; the “Type of Inhibition, Monoamine Oxidase-B” value is “reversible and competitive”. Also, at MAO-B [7], the “MAO-B enzyme activity recovered” value is on record as 80%, the inhibition at 50 µM is greater than 60% and the “Reversibility of binding with MAO-B” value is “reversible; also recorded: reversibly”. Moreover, on MAO-A [2] (setting [9]), the IC50 amounted to 5170 ± 1110 nM. Further, the “SI b (Selectivity index: MAO-A IC50/MAO-B IC50)” value on MAO-A [2] stood at 6.451. For the same compound, the IC50 at MAO-B [3] is 800 ± 180 nM.
